Consider six molecules from ChEMBL document CHEMBL5465560, “Selectivity Literature for EUbOPEN Chemogenomic Library” (2024).

Assay [1] deals with Homeodomain-interacting protein kinase 2 (Homo sapiens, UniProt Q9H2X6). Put plainly: Selectivity interaction (KinomeScan (DiscoverX)) EUB0000092b HIPK2. Conditions: at 10 µM.
Assay [2] concerns the target Dual specificity protein kinase CLK2 (Homo sapiens, UniProt P49760). Put plainly: Selectivity interaction (KinomeScan (DiscoverX)) EUB0000092b CLK2. Conditions: at 10 µM.
For assay [3], the target named is Serine/threonine-protein kinase N1 (Homo sapiens, UniProt Q16512). Put plainly: Selectivity interaction (KinomeScan (DiscoverX)) EUB0001049a PKN1. Conditions: at 1 µM.
Serine/threonine-protein kinase N1, sequence (Q16512 2-942 limits assumed): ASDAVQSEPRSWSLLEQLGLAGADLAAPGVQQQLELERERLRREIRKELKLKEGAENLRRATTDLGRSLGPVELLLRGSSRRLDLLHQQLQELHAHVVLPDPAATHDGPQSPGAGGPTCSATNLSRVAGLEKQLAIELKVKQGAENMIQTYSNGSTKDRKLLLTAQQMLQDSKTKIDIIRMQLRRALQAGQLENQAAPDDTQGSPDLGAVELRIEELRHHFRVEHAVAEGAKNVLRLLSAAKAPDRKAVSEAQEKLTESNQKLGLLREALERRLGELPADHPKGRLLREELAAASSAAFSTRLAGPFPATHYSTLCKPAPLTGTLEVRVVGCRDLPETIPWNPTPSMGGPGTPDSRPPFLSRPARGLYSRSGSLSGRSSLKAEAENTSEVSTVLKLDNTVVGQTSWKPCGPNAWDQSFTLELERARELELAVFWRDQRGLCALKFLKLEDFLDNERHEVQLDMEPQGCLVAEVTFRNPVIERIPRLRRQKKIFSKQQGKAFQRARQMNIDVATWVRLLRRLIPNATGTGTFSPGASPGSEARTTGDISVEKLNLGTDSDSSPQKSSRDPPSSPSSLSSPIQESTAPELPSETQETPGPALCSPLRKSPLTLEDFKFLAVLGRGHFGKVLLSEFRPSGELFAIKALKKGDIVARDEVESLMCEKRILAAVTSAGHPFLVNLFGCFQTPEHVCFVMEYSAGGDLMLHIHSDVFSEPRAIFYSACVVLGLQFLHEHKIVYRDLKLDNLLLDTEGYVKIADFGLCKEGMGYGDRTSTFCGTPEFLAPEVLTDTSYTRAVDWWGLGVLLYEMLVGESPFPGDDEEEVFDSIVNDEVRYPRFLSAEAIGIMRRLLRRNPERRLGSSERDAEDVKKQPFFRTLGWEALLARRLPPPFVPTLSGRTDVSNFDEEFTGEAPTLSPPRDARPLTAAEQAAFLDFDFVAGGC
Assay [4] addresses Serine/threonine-protein kinase 38-like (Homo sapiens) (UniProt Q9Y2H1). Put plainly: Selectivity interaction (KinomeScan (DiscoverX)) EUB0001049a STK38L. Conditions: at 1 µM.
For assay [5], the target named is T1, Serine/threonine-protein kinase Nek5 (Homo sapiens) (UniProt Q6P3R8).
T1 sequence (whole entry): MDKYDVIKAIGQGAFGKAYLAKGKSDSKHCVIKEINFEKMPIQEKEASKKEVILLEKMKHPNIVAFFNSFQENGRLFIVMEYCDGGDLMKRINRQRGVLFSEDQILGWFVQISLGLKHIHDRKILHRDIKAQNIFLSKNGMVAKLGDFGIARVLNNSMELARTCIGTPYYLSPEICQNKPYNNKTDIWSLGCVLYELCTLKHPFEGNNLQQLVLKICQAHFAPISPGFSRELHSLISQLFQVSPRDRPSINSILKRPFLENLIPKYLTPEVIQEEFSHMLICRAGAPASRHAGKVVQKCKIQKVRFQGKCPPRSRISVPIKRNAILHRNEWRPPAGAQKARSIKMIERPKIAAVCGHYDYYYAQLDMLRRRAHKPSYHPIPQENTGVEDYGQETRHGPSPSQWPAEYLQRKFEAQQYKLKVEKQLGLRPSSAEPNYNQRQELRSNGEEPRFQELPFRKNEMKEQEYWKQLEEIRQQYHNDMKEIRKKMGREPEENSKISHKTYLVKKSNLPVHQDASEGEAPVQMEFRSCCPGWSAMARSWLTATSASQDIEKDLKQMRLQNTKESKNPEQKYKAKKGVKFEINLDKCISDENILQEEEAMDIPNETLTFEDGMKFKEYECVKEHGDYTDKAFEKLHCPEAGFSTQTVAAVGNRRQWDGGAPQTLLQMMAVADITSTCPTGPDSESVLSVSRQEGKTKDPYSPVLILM
Put plainly: Selectivity interaction (KinomeScan (DiscoverX)) EUB0001049a NEK5. Particulars: at 1 µM.

Assay [6] has as its target T2, Serine/threonine-protein kinase Nek1 (Homo sapiens) (UniProt Q96PY6).
T2 sequence (whole entry): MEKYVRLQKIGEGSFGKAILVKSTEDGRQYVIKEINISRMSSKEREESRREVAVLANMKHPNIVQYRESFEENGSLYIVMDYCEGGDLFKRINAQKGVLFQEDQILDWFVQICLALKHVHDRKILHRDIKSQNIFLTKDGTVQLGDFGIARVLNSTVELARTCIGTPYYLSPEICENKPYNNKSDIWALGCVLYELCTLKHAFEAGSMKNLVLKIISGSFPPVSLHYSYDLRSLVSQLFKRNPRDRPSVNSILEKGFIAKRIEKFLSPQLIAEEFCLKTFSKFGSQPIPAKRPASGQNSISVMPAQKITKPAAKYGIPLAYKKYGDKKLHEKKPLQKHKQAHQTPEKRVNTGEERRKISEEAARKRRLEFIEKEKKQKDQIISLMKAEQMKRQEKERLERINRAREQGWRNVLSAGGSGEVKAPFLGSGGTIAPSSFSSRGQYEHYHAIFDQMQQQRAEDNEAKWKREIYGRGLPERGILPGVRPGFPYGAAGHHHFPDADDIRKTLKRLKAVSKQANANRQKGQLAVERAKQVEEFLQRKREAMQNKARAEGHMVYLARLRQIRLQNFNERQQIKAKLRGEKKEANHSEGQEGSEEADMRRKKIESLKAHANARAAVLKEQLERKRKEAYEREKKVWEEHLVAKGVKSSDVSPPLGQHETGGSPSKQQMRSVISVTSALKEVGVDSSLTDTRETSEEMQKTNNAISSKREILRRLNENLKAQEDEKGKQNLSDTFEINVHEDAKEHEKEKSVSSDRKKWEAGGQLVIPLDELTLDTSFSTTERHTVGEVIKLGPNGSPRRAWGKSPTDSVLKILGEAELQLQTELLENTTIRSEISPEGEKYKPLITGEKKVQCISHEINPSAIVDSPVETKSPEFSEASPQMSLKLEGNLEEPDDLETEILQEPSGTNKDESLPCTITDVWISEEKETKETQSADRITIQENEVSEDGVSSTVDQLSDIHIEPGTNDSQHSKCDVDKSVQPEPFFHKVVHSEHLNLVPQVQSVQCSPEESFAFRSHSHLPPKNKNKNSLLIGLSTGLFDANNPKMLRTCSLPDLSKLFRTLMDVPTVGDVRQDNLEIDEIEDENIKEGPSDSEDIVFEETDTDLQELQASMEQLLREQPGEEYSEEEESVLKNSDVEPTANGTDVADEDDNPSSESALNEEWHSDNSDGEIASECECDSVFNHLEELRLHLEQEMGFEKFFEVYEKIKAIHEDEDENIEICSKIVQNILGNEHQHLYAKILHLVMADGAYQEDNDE
Put plainly: Selectivity interaction (KinomeScan (DiscoverX)) EUB0000045b NEK1.

Assay [7] addresses T3, Myosin light chain kinase family member 4 (Homo sapiens) (UniProt Q86YV6).
T3 sequence (whole entry): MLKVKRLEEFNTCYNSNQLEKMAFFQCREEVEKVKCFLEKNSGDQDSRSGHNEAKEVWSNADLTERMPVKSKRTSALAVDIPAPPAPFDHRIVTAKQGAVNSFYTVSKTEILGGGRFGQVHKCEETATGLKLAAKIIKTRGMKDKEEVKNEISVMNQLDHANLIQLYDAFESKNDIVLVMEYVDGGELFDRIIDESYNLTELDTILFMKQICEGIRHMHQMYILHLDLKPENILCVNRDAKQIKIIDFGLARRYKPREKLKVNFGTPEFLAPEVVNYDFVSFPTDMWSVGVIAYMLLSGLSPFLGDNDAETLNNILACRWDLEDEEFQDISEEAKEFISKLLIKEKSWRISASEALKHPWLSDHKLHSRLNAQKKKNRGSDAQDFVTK
Put plainly: Selectivity interaction (KinomeScan (DiscoverX)) EUB0000666a MYLK4. Particulars: at 10 µM.

For assay [8], the target named is Activated CDC42 kinase 1 (Homo sapiens, UniProt Q07912). Put plainly: Selectivity interaction (KinomeScan (DiscoverX)) EUB0000666a TNK2. Conditions: at 10 µM.
Assay [9] deals with Ribosomal protein S6 kinase alpha-1 (Homo sapiens, UniProt Q15418). Put plainly: Selectivity interaction (ActivX KiNativ screen (kinase selectivity in THP-1 cell lysates)) EUB0000639a RPS6KA1. Type of assay: subcellular. Particulars: lysate, at 0.01 µM.
Ribosomal protein S6 kinase alpha-1, sequence (Q15418 whole entry): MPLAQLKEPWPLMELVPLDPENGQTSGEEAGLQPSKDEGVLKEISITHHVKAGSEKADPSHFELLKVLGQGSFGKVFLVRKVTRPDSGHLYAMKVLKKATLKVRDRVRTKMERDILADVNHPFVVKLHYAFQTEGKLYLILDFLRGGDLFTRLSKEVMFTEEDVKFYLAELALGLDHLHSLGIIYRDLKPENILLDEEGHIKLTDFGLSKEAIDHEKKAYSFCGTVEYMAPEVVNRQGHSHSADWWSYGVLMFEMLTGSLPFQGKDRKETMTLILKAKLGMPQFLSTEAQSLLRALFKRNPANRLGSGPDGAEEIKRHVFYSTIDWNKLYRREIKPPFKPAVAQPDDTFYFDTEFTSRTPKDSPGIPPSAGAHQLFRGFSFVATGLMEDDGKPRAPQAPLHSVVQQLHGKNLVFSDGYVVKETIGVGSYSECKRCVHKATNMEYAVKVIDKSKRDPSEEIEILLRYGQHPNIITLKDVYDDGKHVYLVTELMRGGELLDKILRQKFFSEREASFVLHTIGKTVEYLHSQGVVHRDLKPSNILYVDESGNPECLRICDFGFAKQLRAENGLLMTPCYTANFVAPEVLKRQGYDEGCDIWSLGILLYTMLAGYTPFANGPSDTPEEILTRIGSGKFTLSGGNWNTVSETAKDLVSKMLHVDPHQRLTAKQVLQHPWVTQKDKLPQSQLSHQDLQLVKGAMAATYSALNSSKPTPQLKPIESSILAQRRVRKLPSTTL
In assay [10] the target is Tyrosine-protein kinase JAK1 (Homo sapiens, UniProt P23458). Put plainly: Selectivity interaction (KinomeScan (DiscoverX)) EUB0000595a JAK1. Particulars: at 10 µM.
Tyrosine-protein kinase JAK1, sequence (P23458 whole entry): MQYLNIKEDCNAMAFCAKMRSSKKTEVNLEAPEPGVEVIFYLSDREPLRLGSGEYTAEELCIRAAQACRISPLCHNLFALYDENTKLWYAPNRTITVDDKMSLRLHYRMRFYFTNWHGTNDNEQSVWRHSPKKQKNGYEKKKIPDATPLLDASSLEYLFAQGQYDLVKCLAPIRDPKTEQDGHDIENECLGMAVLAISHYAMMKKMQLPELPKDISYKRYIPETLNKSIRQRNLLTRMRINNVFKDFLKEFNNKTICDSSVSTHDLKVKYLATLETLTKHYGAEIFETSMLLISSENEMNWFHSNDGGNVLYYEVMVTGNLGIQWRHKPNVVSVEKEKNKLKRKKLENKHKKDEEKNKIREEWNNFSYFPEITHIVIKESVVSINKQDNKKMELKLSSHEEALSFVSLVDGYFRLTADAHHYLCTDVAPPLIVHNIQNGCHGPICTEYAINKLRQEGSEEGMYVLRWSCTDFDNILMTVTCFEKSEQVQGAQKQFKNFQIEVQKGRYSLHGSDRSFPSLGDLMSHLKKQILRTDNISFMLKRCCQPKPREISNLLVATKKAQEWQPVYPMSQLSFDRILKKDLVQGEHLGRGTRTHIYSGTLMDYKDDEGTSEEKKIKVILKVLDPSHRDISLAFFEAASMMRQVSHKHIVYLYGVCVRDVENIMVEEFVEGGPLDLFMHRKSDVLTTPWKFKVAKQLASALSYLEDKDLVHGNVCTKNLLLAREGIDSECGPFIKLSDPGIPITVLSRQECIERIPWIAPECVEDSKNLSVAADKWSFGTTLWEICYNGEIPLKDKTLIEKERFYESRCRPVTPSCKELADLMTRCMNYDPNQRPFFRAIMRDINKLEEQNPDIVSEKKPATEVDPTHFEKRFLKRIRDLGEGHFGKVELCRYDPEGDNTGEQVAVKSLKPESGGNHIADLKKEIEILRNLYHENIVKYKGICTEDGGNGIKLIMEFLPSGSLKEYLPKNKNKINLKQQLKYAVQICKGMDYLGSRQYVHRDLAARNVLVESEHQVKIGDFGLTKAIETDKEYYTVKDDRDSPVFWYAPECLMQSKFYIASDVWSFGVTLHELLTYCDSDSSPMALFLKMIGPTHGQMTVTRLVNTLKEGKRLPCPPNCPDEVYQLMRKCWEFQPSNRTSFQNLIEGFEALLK
The target in assay [11] is Activin receptor type-2B (Homo sapiens) (UniProt Q13705). Particulars: at 10 µM.

Serine/threonine-protein kinase 38-like (Homo sapiens), sequence (Q9Y2H1 2-464 limits assumed): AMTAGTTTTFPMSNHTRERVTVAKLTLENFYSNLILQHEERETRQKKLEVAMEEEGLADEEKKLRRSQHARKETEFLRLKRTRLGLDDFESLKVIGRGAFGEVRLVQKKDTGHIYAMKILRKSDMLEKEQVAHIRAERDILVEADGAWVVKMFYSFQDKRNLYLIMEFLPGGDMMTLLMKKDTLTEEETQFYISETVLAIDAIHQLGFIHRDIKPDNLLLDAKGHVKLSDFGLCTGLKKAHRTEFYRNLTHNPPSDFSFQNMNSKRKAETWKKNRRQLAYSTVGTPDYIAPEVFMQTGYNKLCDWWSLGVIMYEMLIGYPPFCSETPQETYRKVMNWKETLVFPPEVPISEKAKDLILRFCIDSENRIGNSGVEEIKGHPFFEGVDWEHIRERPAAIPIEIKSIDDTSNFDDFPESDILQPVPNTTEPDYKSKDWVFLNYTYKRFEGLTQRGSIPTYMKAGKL
Homeodomain-interacting protein kinase 2, sequence (Q9H2X6 whole entry, looked up): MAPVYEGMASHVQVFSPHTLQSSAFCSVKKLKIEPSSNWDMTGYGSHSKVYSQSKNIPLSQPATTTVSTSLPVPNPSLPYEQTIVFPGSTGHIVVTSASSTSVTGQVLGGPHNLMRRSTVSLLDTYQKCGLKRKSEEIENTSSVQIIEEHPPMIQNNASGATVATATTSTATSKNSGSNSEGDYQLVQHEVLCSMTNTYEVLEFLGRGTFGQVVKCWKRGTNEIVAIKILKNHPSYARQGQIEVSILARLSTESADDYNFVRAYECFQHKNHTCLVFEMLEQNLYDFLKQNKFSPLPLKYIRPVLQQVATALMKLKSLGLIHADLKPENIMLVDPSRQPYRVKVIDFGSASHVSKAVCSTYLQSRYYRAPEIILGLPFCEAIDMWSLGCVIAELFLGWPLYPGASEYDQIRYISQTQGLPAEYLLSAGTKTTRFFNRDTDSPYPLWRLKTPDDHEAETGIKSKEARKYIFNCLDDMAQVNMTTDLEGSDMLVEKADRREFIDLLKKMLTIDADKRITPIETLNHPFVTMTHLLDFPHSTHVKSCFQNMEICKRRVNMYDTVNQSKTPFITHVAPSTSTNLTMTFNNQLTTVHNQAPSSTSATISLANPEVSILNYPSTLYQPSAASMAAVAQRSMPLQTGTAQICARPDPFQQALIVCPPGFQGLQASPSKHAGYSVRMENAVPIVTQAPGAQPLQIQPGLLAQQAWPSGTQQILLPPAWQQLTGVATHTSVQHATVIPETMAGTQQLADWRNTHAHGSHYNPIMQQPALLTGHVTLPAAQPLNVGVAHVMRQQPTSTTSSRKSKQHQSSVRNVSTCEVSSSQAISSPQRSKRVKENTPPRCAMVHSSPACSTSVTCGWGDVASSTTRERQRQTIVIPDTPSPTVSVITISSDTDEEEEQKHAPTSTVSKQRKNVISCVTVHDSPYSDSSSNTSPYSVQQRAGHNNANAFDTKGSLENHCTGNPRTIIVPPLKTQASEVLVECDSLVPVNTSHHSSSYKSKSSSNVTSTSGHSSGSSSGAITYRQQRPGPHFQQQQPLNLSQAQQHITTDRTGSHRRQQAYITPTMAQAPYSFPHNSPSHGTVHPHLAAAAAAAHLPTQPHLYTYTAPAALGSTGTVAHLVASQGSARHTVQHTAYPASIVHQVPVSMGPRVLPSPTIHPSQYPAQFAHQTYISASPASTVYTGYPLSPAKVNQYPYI
Dual specificity protein kinase CLK2, sequence (P49760 whole entry, looked up): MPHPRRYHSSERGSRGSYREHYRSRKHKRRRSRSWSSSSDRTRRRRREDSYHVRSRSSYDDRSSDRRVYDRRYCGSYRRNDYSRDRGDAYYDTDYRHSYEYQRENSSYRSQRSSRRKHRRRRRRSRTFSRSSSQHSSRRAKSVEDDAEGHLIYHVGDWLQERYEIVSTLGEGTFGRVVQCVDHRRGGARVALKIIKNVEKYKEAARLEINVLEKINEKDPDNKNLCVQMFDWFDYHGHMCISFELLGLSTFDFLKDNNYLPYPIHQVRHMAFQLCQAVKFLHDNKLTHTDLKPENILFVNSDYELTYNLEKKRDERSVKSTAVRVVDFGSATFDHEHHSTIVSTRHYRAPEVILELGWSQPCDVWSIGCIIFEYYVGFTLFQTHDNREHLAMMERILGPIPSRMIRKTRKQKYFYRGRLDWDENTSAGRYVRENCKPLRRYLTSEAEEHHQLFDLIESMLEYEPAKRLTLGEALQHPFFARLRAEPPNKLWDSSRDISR

For the molecule `CCC(=O)N1CCN(c2ccc(-n3c(=O)ccc4cnc5ccc(-c6cnc7ccccc7c6)cc5c43)cc2C(F)(F)F)CC1`, the % of control is 58% in [1] and 65% in assay [2].

Consider `COc1cc(Nc2nc(C)cc(-c3cnn4nc(OC)ccc34)n2)cc(C(F)(F)F)c1`, for which the % of control is 94% in [3], 100% in assay [4] and 96% in assay [5].

With `C=CC(=O)Nc1cc(-n2c(=O)ccc3cnc4ccc(-c5ccc(NS(C)(=O)=O)cc5)cc4c32)ccc1C`, the values for the % of control in assay [6] (at 1 µM) and in [6] (at 10 µM) were 100% and 81%, respectively.

Turning to `O=C(NOC[C@H](O)CO)c1ccc(F)c(F)c1Nc1ccc(I)cc1F`, the % of control in assay [7] turned out to be 100%; in assay [8], 72%.

As to `CC[C@@H]1[C@H](F)C(=O)N[C@@H]1COc1nccc2cc(C(N)=O)c(OC)cc12` [ZIMLOVISERTIB], in assay [9], the % of inhibition was -8.3%.

`COCC(=O)NC/C=C/c1ccc2ncnc(Nc3ccc(Oc4ccc(C)nc4)c(C)c3)c2c1` [CP-724714]: the % of control in assay [10] and in [11] was 100% throughout.
